Experimental data from patent publication US8426677B2, “Method of controlling plant growth and architecture by controlling expression of gibberellin 2-oxidase” (Academia Sinica, priority 2008, dated 2013).

B1: GA2ox5: rice class C20 gibberellin 2-oxidase (SEQ ID NO:2), expressed in E. coli and partially purified (protein, listed as Oryza sativa)
chain: MEEHDYDSNSNPPLMSTYKHLFVEQHRLDMDMGAIDVDECELPVIDLAGLMEAEQVCRADMVRAASEWGFFQVTNHGVPQALLRELHDAQVAVFRRPFQEKVTERLLGFSPESYRWGTPTAKCLEQLSWSEAYHIPMTTPRPSTSIRARAVIEEVSRAMYELAQKLAEILMRGLPGAGEGETMVTTREETCFLRLNRYPPCAMAMGGFGLCPHTDSDLLTIVHQQQDTVGGLQLLKGGRWVAVKPSPSTLIVNVGDLLQAWSNDVYKSVEHRVMANATLERFSMAFFLCPSYHTLIIPSSSHVHDDDAHYRSFTFGEYRKQIMEDVRSTGRKIGLHRFRTR
B2: GA2ox6: rice class C20 gibberellin 2-oxidase (SEQ ID NO:4), expressed in E. coli and partially purified (protein, listed as Oryza sativa)
chain: MPAFADIAIDPPLADSYRALALLRRDRDGGIAPPAVQMVGSGGAVLERDLPMVDLERLTRGGAGERKACAGAMARAASEWGFFQLTNHGVGRELMEEMRREQARLFRLPFETKEKAGLLNGSYRWGNPTATSLRHLSWSEAFHVPLASISGADCDFGDLTSLRGVMQEVAEAMSRVANTVAAALAEELTGRGGGGASAAPWFPAGCDETTCFLRLNRYPACPFAADTFGLVPHTDSDFLTVLCQDQVGGLHLMKDSRWVAVRPRPDALVVNIGDLFQAWSNNRYKSVEHKVVANAKTDRLSVAYFLCPSYDSLVGTCGEPSPYRAFTFGEYRKKVQEDVRTTGKKIGLPNFFKHSSVQ

What was measured:
[1] = tested on: TB1 mRNA; assay: RT-PCR of TB1 mRNA in embryos containing tiller buds; type: in vivo, Oryza sativa; settings: 12 DAI
Description: (§1) To determine whether GA deficiency induced expression of OSH1 and TB1 that in turn promotes tillering and root development, GA2ox5Δ335-341ACT, GA2ox6ACT and wild type seedlings were grown in media with or without 5 μM GA3 after germination. Rice embryos containing tiller buds were collected at 12 DAI. […] It is not clear why the accumulation of OSH1 and TB1 mRNAs in the wild type was enhanced by GA3 (FIG. 14A), nevertheless, its stem became slenderer and adventitious root growth was inhibited similar as mutants (FIG. 14B).
(§2) Total RNA was purified from rice tissues using a Trizol reagent (Invitrogen). Total RNA (15 μg aliquots) was treated with 1 unit of RNase-free DNase I (Promega) in a 20 μL volume and incubated at 37° C. for 30 min. The RNA sample was then incubated at 65° C. for 10 min and placed on ice. cDNA synthesis was performed in a 20 μL mixture containing 1× reverse transcription reaction buffer (Invitrogen), 4.5 μg of purified RNA, 400 ng oligo (dT)16 primer, 5 mM DTT, 0.5 mM each dNTP, 40 units RNasin (Promega), and 200 units Superscript® III reverse transcriptase (Invitrogen). The reaction was carried out at room temperature (25° C.) for 10 min, transferred to 50° C. for 1 h, and terminated by heating at 72° C. for 15 min. The sample, which served as a cDNA stock for PCR analysis, was then stored at −70° C. […]

[2] = tested on: OSH1 mRNA; assay: RT-PCR of OSH1 mRNA in embryos containing tiller buds; type: in vivo, Oryza sativa; settings: 12 DAI
Description: as §1, §2

[3] = tested on: Ubi::GA2ox6 transgenic rice and wild type; assay: GA3 treatment of wild type and Ubi::GA2ox6 transgenic rice grown in pot soil (plant height); type: in vivo, Oryza sativa; settings: 10 μM GA3 at a 12-day interval for 5 weeks
[4] = tested on: GA2ox6ACT mutant and wild type rice seeds/seedlings; assay: Germination and seedling growth of rice on MS agar medium with or without GA3; type: in vivo, Oryza sativa
Description: To determine whether the dwarfism of rice mutants overexpressing GA2ox was a result of a reduction of bio-active GAs, GA2ox6ACT mutant seeds were germinated on MS agar medium with or without supplementation with 5 μM GA3.
The rice cultivar Oryza sativa L. cv Tainung 67 was used as in this study. Four T-DNA tagged rice GA2ox mutant lines were obtained from the Taiwan Rice Insertional Mutagenesis database (TRIM database, http://trim.sinica.edu.tw/). T1 mutant seeds were surface sterilized in 2.5% NaClO for 18 minutes, washed well with sterile water, placed on MS agar medium (Murashige and Skoog Basal Medium, Sigma), and incubated at 28° C. with continuous light for 15˜20 days. Wild type rice was grown under the same conditions. Plants were transplanted to pot soil and grown in a net-house during the growing season.

[5] = tested on: wild type and GA2ox6ACT plants; assay: Tiller number of 1-month-old plants in pot soil sprayed with GA3; type: in vivo, Oryza sativa; settings: 10 μM GA3 spray once every 7 days, 3 sprays, GA2ox6ACT mutant and wild type
Text: (§3) Additionally, the inhibition of tillering by GA3 was independent of rice growth stage (see FIG. 15B). […] Both GA-treated GA2ox6ACT mutant and wild-type plants produced 2-3 times fewer tillers than mutant and wild-type plants without GA treatment (FIG. 15B).

[6] = tested on: GA2ox6ACT mutant seedlings; assay: Tiller and adventitious root development of seedlings grown in media with or without GA3; type: in vivo, Oryza sativa; settings: 5 μM GA3 in medium
Text: as §3

[7] = tested on: GA2ox6 mRNA; assay: RT-PCR of GA2ox6 mRNA in leaves and roots of seedlings; type: in vivo, Oryza sativa; settings: GA3 treatment, wild type and GA2ox6ACT mutant seedlings at 18 DAI
Description: Total RNA was purified from rice tissues using a Trizol reagent (Invitrogen). Total RNA (15 μg aliquots) was treated with 1 unit of RNase-free DNase I (Promega) in a 20 μL volume and incubated at 37° C. for 30 min. The RNA sample was then incubated at 65° C. for 10 min and placed on ice. cDNA synthesis was performed in a 20 μL mixture containing 1× reverse transcription reaction buffer (Invitrogen), 4.5 μg of purified RNA, 400 ng oligo (dT)16 primer, 5 mM DTT, 0.5 mM each dNTP, 40 units RNasin (Promega), and 200 units Superscript® III reverse transcriptase (Invitrogen). The reaction was carried out at room temperature (25° C.) for 10 min, transferred to 50° C. for 1 h, and terminated by heating at 72° C. for 15 min. The sample, which served as a cDNA stock for PCR analysis, was then stored at −70° C.
RT-PCR analysis was carried out in a 15 μl, solution containing 0.9 μL cDNA, 1×PCR buffer (Promega), 1.5 mM MgCl2, 0.2 mM each dNTP, 0.3 μmole each primer, 3% DMSO, and 0.6 units of Taq DNA polymerase (Promega). For GA2ox2, GA2ox7, and GA2ox8 that had very low mRNA abundance, RT-PCR analysis was carried out using KOD Hot Start DNA Polymerase (Novagen). Each 15 μL of reaction solution contained 0.9 μL cDNA, 1×PCR buffer (Novagen), 1.0 mM MgSO4, 0.2 mM each dNTP, 0.3 μmole each primer, 3% DMSO, and 1 unit of KOD Hot Start DNA Polymerase (Novagen). […]

[8] = In vitro enzyme activity of recombinant GST fusion GA2ox5 and GA2ox6 expressed in E. coli; type: biochemical, Oryza sativa; settings: partially purified glutathione S-transferase fusion protein
Text: GA53, a precursor of GA1, could be converted to GA97 in vitro by the Arabidopsis class C20 GA2ox through 2β-hydroxylation (Schomburg et al., 2003). The in vitro activity of rice GA2ox5 and GA2ox6 were also investigated by overexpression as fusion proteins with glutathione S-transferase in E. coli. Fusion proteins were partially purified and their enzyme activity analyzed.
Full length cDNAs of GA2ox5 and GA2ox6 in the pGEM®-T Easy cloning vector were digested with BamHI and subcloned into the same site in pGEX-5X expression vector (Amersham Biosciences). The resulting expression vectors were used to transform E. coli strain BL21-CodonPlus® (DE3) RIPL (Stratagen). A volume of 5 mL transformants pre-cultured overnight in Luria-Bertani broth (LB broth, DIFCO) was transferred to 500 mL of LB broth with 100 mgL^−1 ampicillin and incubated at 37° C. until cell density reached an OD600 around 0.6˜0.8. Isopropyl-β-D-thiogalactopyranoside (IPTG) was added to the bacteria culture to a final concentration of 0.3 mM and incubated at 28° C. for another 3 hours. Bacteria were pelleted by centrifuge and harvested, resuspended in BugBuster® Protein Extraction Reagent (Novagen) at room temperature for 10˜20 minutes, and centrifuged at […] for 30 min. The supernatant protein extracts were partially purified through GST-Bind resin (Novagen), and the purified protein extracts were stored at −80° C. […]

[9] = 5 μM GA3, GA2ox5Δ335-341ACT and GA2ox6ACT mutants

| Molecule | TB1 mRNA level in mutants [1, 9] | TB1 mRNA accumulation in the wild type ([1]; 5 μM GA3, wild type) | OSH1 mRNA level in mutants [2, 9] | OSH1 mRNA accumulation in the wild type ([2]; 5 μM GA3, wild type) | Final height of Ubi::GA2ox6 transgenic plants relative to the wild type [3] | Height of wild type plant ([3]; wild type) | Root lengths of wild type and GA2ox6ACT mutant seedlings ([4]; 5 μM GA3, 18 DAI) | Height of dwarf GA2ox6ACT mutant seedlings, recovery relative to the wild type ([4]; 5 μM GA3, GA2ox6ACT mutant, 18-day-old seedlings) | Plant height of 18-day-old wild-type seedlings ([4]; 5 μM GA3, wild type, 18 DAI) | Germination of GA2ox6ACT seeds ([4]; 5 μM GA3 in MS agar medium) | Tillers produced compared to plants without GA treatment [5] | Root system compared to the mutant without GA treatment ([6]; GA2ox6ACT mutant) | Time at which the first tiller developed ([6]; GA2ox6ACT mutant (9 DAI without GA treatment)) | GA2ox6 mRNA accumulation in leaves and roots [7] | Conversion of GA53 to GA97 (2β-hydroxylation) [8] |
| --- | --- | --- | --- | --- | --- | --- | --- | --- | --- | --- | --- | --- | --- | --- | --- |
| C=C1C[C@]23C[C@@]1(O)CC[C@H]2[C@@]12C=C[C@H](O)[C@@](C)(C(=O)O1)[C@H]2[C@@H]3C(=O)O [GA3] | significantly reduced | enhanced | significantly reduced | enhanced | 63 % of the WT | not altered | effectively enhanced | up to 84 % of the wild type | only slightly enhanced | promoted germination | 2-3 times fewer | significantly reduced | 16 DAI | unaffected |  |
| B1 |  |  |  |  |  |  |  |  |  |  |  |  |  |  | could convert GA53 to GA97 |
| B2 |  |  |  |  |  |  |  |  |  |  |  |  |  |  | could convert GA53 to GA97 |
